Assay results from ChEMBL document CHEMBL1201862, “PubChem BioAssay data set” (2004).
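In this assay, cells in 96-well plates receive the compound at five concentrations for 48 hours. Endpoints are linearly interpolated between the surrounding concentrations. GI50 = concentration required for 50% inhibition of growth.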 The source made the active and inactive calls. Cut-off read from the data, not from the text of the source: active = GI50 up to about 1.1 µM and inactive = higher.

Tests used:
Experiment in all cases: DTP human tumour cell line panel, 48 h
[1] = system: MDA-MB-231
[2] = system: KM12
[3] = system: IGROV-1
[4] = system: NCI-H226
[5] = system: NCI/ADR-RES
[6] = system: SF-295
[7] = system: SNB-19
[8] = system: RXF 393
[9] = system: Hs-578T
[10] = system: SK-MEL-28
[11] = system: EKVX
[12] = system: OVCAR-8
[13] = system: MCF7
[14] = system: NCI-H522
[15] = system: CCRF-CEM
[16] = system: UO-31
[17] = system: K562
[18] = system: DU-145
[19] = system: U-251
[20] = system: SR

| Structure (SMILES) | GI50 [1] | GI50 [2] | GI50 [3] | GI50 [4] | GI50 [5] | GI50 [6] | GI50 [7] | GI50 [8] | GI50 [9] | GI50 [10] | GI50 [11] | GI50 [12] | GI50 [13] | GI50 [14] | GI50 [15] | GI50 [16] | GI50 [17] | GI50 [18] | GI50 [19] | GI50 [20] |
| --- | --- | --- | --- | --- | --- | --- | --- | --- | --- | --- | --- | --- | --- | --- | --- | --- | --- | --- | --- | --- |
| C[S+](C)CC(=O)c1ccc2c(c1)Sc1ccccc1O2 | 7.06 µM (inactive) | 0.955 µM (active) | 2.75 µM (inactive) | 5.16 µM (inactive) | 6.55 µM (inactive) | 5.25 µM (inactive) | 5.51 µM (inactive) | 3.78 µM (inactive) | 3.45 µM (inactive) | 7.89 µM (inactive) | 3.44 µM (inactive) | 3.39 µM (inactive) | 1.7 µM (inactive) | 1.09 µM (active) | 5.27 µM (inactive) | 3.08 µM (inactive) | 3.21 µM (inactive) | 4.1 µM (inactive) | 7.19 µM (inactive) | 1.43 µM (inactive) |
| CO[C@H]1[C@@H](O)[C@@H](C)O[C@@H](O[C@H]2CC[C@@]3(C)[C@H](CC[C@@H]4[C@@H]3CC[C@]3(C)[C@@H](C5=CC(=O)OC5)[C@@H](OC(C)=O)C[C@]43O)C2)[C@@H]1O [NERITALOSIDE] | 0.198 µM (active) | 0.157 µM (active) | 0.0371 µM (active) | 0.173 µM (active) | 0.0486 µM (active) | 0.0461 µM (active) | 0.144 µM (active) | 0.0164 µM (active) | 0.0202 µM (active) | 0.291 µM (active) | 0.0156 µM (active) | 0.0723 µM (active) | 0.16 µM (active) | 0.0142 µM (active) | 0.029 µM (active) | 0.0177 µM (active) | 0.141 µM (active) | 0.0176 µM (active) | 0.0798 µM (active) | 0.0533 µM (active) |
| COc1cc([C@@H]2C3C(=O)c4ccccc4C3[C@@H](c3cc(OC)c(OC)c(OC)c3)C23Cc2ccccc2C3=O)cc(OC)c1OC (stereo not given in full) | > 100 µM (inactive) | > 100 µM (inactive) | 24.3 µM (inactive) | > 100 µM (inactive) | > 100 µM (inactive) | > 100 µM (inactive) | > 100 µM (inactive) | > 100 µM (inactive) | > 100 µM (inactive) | > 100 µM (inactive) | > 100 µM (inactive) | > 100 µM (inactive) | 15.4 µM (inactive) | > 100 µM (inactive) | > 100 µM (inactive) | > 100 µM (inactive) | > 100 µM (inactive) | > 100 µM (inactive) | > 100 µM (inactive) | > 100 µM (inactive) |
| COc1cccc2c1C(=O)OC2c1cccc2ccccc12 (stereo not given) | 36.4 µM (inactive) | > 100 µM (inactive) | > 100 µM (inactive) | 92.9 µM (inactive) | 53.3 µM (inactive) | 33.6 µM (inactive) | 61.2 µM (inactive) | 31.5 µM (inactive) | 33 µM (inactive) | > 100 µM (inactive) | > 100 µM (inactive) | 56.4 µM (inactive) | 31.6 µM (inactive) | > 100 µM (inactive) | > 100 µM (inactive) | > 100 µM (inactive) | > 100 µM (inactive) | > 100 µM (inactive) | 67.5 µM (inactive) | > 100 µM (inactive) |
